Experimental data taken from ChEMBL document CHEMBL1201862, “PubChem BioAssay data set” (2004).
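Compound exposure: 48 hours, 5 concentrations, 96-well plates. GI50 marks 50% less growth.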 Active and inactive are the calls of the source. No stated cut-off is given here; in the data, active = GI50 up to about 1.1 µM and inactive = higher.

How the values were obtained:
Test in all cases: DTP human tumour cell line panel, 48 h
OVCAR-3 = test system: OVCAR-3
SN12C = test system: SN12C
UACC-62 = test system: UACC-62
MOLT-4 = test system: MOLT-4
XF498 = test system: XF498
SK-MEL-2 = test system: SK-MEL-2
SK-OV-3 = test system: SK-OV-3
SW-620 = test system: SW-620
EKVX = test system: EKVX
LOX IMVI = test system: LOX IMVI
SK-MEL-28 = test system: SK-MEL-28
NCI-H460 = test system: NCI-H460
HCT-15 = test system: HCT-15
IGROV-1 = test system: IGROV-1
SNB-78 = test system: SNB-78
TK-10 = test system: TK-10
SNB-19 = test system: SNB-19
LXFL 529 = test system: LXFL 529
KM-20L2 = test system: KM-20L2
SF-295 = test system: SF-295
SF-268 = test system: SF-268
K562 = test system: K562
UACC-257 = test system: UACC-257
CAKI-1 = test system: CAKI-1
KM12 = test system: KM12
Malme-3M = test system: Malme-3M
ACHN = test system: ACHN
NCI-H23 = test system: NCI-H23
SK-MEL-5 = test system: SK-MEL-5
U-251 = test system: U-251
SF-539 = test system: SF-539
UO-31 = test system: UO-31
M14 = test system: M14
OVCAR-8 = test system: OVCAR-8
CCRF-CEM = test system: CCRF-CEM
A498 = test system: A498
DLD-1 = test system: DLD-1
HCC 2998 = test system: HCC 2998
A549 = test system: A549
OVCAR-5 = test system: OVCAR-5
RPMI-8226 = test system: RPMI-8226
DMS-273 = test system: DMS-273
HOP-62 = test system: HOP-62
786-0 = test system: 786-0
SNB-75 = test system: SNB-75
HT-29 = test system: HT-29
M19-MEL = test system: M19-MEL
COLO 205 = test system: COLO 205
OVCAR-4 = test system: OVCAR-4
HL-60 = test system: HL-60
MCF7 = test system: MCF7
HCT-116 = test system: HCT-116
RXF 393 = test system: RXF 393
HOP-18 = test system: HOP-18
DMS-114 = test system: DMS-114
NCI/ADR-RES = test system: NCI/ADR-RES
NCI-H522 = test system: NCI-H522
HOP-92 = test system: HOP-92

NC1=NC(=O)C(CC(=O)Nc2ccc(Cl)cc2Cl)S1 (configuration not stated)
GI50 (OVCAR-3): > 100 µM (inactive)
GI50 (SN12C): > 100 µM (inactive)
GI50 (UACC-62): > 100 µM (inactive)
GI50 (MOLT-4): 48.4 µM (inactive)
GI50 (XF498): > 100 µM (inactive)
GI50 (SK-MEL-2): > 100 µM (inactive)
GI50 (SK-OV-3): > 100 µM (inactive)
GI50 (SW-620): > 100 µM (inactive)
GI50 (EKVX): > 100 µM (inactive)
GI50 (LOX IMVI): > 100 µM (inactive)
GI50 (SK-MEL-28): > 100 µM (inactive)
GI50 (NCI-H460): > 100 µM (inactive)
GI50 (HCT-15): > 100 µM
GI50 (IGROV-1): > 100 µM (inactive)
GI50 (SNB-78): > 100 µM (inactive)
GI50 (TK-10): > 100 µM (inactive)
GI50 (SNB-19): > 100 µM (inactive)
GI50 (LXFL 529): > 100 µM (inactive)
GI50 (KM-20L2): > 100 µM (inactive)
GI50 (SF-295): > 100 µM (inactive)
GI50 (SF-268): > 100 µM (inactive)
GI50 (K562): > 100 µM (inactive)
GI50 (UACC-257): > 100 µM (inactive)
GI50 (CAKI-1): > 100 µM (inactive)
GI50 (KM12): > 100 µM (inactive)
GI50 (Malme-3M): > 100 µM (inactive)
GI50 (ACHN): > 100 µM (inactive)
GI50 (NCI-H23): > 100 µM (inactive)
GI50 (SK-MEL-5): > 100 µM (inactive)
GI50 (U-251): > 100 µM (inactive)
GI50 (SF-539): > 100 µM (inactive)
GI50 (UO-31): > 100 µM (inactive)
GI50 (M14): > 100 µM (inactive)
GI50 (OVCAR-8): > 100 µM (inactive)
GI50 (CCRF-CEM): 5.13 µM (inactive)
GI50 (A498): 57.4 µM (inactive)
GI50 (DLD-1): > 100 µM (inactive)
GI50 (HCC 2998): > 100 µM (inactive)
GI50 (A549): > 100 µM (inactive)
GI50 (OVCAR-5): > 100 µM (inactive)
GI50 (RPMI-8226): > 100 µM (inactive)
GI50 (DMS-273): > 100 µM (inactive)
GI50 (HOP-62): > 100 µM (inactive)
GI50 (786-0): > 100 µM (inactive)
GI50 (SNB-75): > 100 µM (inactive)
GI50 (HT-29): > 100 µM (inactive)
GI50 (M19-MEL): > 100 µM (inactive)
GI50 (COLO 205): > 100 µM (inactive)
GI50 (OVCAR-4): > 100 µM (inactive)

Nc1ncnc2c(C3OC(CO)C(O)C3O)n[nH]c12 (configuration not stated)
GI50 (HL-60): 0.045 µM (active)
GI50 (SN12C): 0.0652 µM (active)
GI50 (UACC-62): 1.4 µM (inactive)
GI50 (MCF7): 0.0698 µM (active)
GI50 (XF498): 0.158 µM (active)
GI50 (HCT-116): 0.0767 µM (active)
GI50 (SK-MEL-2): 0.0863 µM (active)
GI50 (SW-620): 0.106 µM (active)
GI50 (EKVX): 0.0646 µM (active)
GI50 (LOX IMVI): 0.0647 µM (active)
GI50 (RXF 393): 0.201 µM (active)
GI50 (NCI-H460): 0.0826 µM (active)
GI50 (IGROV-1): 0.445 µM (active)
GI50 (SNB-78): 0.53 µM (active)
GI50 (SNB-19): 0.211 µM (active)
GI50 (HOP-18): 0.0592 µM (active)
GI50 (KM-20L2): 0.229 µM (active)
GI50 (SF-295): 0.427 µM (active)
GI50 (K562): 0.0741 µM (active)
GI50 (KM12): 0.38 µM (active)
GI50 (Malme-3M): 0.432 µM (active)
GI50 (DMS-114): 0.208 µM (active)
GI50 (NCI/ADR-RES): 0.076 µM (active)
GI50 (NCI-H23): 1.12 µM (inactive)
GI50 (SK-MEL-5): 1.41 µM (inactive)
GI50 (U-251): 2.53 µM (inactive)
GI50 (SF-539): 0.46 µM (active)
GI50 (UO-31): 0.0551 µM (active)
GI50 (NCI-H522): 0.151 µM (active)
GI50 (A498): 0.484 µM (active)
GI50 (DLD-1): 0.0575 µM (active)
GI50 (HCC 2998): 0.0375 µM (active)
GI50 (HOP-92): 0.0513 µM (active)
GI50 (A549): 0.428 µM (active)
GI50 (OVCAR-5): 0.59 µM (active)
GI50 (RPMI-8226): 0.159 µM (active)
GI50 (DMS-273): 0.0826 µM (active)
GI50 (HOP-62): 0.0509 µM (active)
GI50 (SNB-75): 0.196 µM (active)
GI50 (HT-29): 0.0895 µM (active)
GI50 (M19-MEL): 2.42 µM (inactive)
GI50 (COLO 205): 2.42 µM (inactive)
GI50 (OVCAR-4): 0.582 µM (active)
